Reference: patent US9945841B2, “Cell cycle measuring method based on an electrochemical method” (INDUSTRY-UNIVERSITY COOPERATION FOUNDATION SOGANG UNIVERSITY, priority 2011, dated 2018)

What was measured:
Format in all cases: cell-based, rat
PC12 cells [1] = test: FACS cell-cycle distribution of on-chip synchronized cells; details: 2 mM thymidine 18 hrs
Protocol: (§1) A silicon-based gold electrode was first cleaned with freshly prepared piranha solution (1:3 mixture of 30% H2O2 and concentrated H2SO4) for 5 min and then rinsed thoroughly with double-distilled water. The electrode was then carefully polished by sonication in absolute alcohol and double-distilled water for 5 min. Finally, the electrode was electrochemically cleaned in 0.5 M H2SO4 until a stable cyclic voltammogram was obtained and then dried with purified nitrogen. After the pretreatment, a well ordered oligopeptide (RGD-MAP-C) was fabricated on the freshly cleaned gold electrode as reported in our previous work (15). For the electrochemical measurements, a 2 cm×1 cm×0.5 cm (width×length×height) cell chip chamber was fabricated by fixing a plastic chamber (Lab-Tek®, Thermo fisher scientific, USA) to the Au working electrode using PDMS (Polydimethylsiloxane). Afterward, rat pheochromocytoma (PC12) cells were seeded on the electrode at a density of 2×10^5 cells/chip and then immobilized via RGD-integrin interaction for 24 hrs in a standard cell culture environment. The cell-immobilized electrode was treated with 2 mM thymidine in culture medium (RPMI 1640) for 18 hrs, followed by an 8 hrs release (replaced by fresh medium), and then again with 2 mM thymidine for another 18 hrs to block cells in G1/S-phase (FIG. 1c). […]

phosphohistone (p-HH^3) = test: Western blot of synchronized PC12 cells, G2/M-phase specific protein p-HH3; details: Western blot of G1/S- or G2/M-blocked PC12 cells (FIG. 3d)
Protocol: (§2) The cell-immobilized electrode was treated with 2 mM thymidine in culture medium (RPMI 1640) for 18 hrs, followed by an 8 hrs release (replaced by fresh medium), and then again with 2 mM thymidine for another 18 hrs to block cells in G1/S-phase (FIG. 1c). Similarly, another cell-immobilized electrode was treated initially with 2 mM thymidine as mentioned before for 18 hrs, followed by a 4 hrs release (replaced by fresh medium), and then with 100 ng/ml of nocodazole for another 10 h to block cells in G2/M-phase (FIG. 1c). Therefore, the working electrodes were prepared for electrochemical signal analysis of the cells in different phases of the cell cycle. Furthermore, for the time-dependent progression of G1/S-phase towards G2/M-phase, G1/S-blocked cells were released in fresh medium containing 10% FBS for several hours to perform electrochemical measurements. The synchronized PC12 cell pellet was solubilized for 15 min at 4° C. in lysis buffer. Lysates were centrifuged at 13,000 g for 30 min at 4° C. in order to remove insoluble material. The supernatant was then collected, and the protein concentration was determined using BCA protein assay reagent (Pierce Chemicals). […]

PC12 cells [2] = test: Differential pulse voltammetry (DPV) of cells on Au/RGD-MAP-C cell chip; details: PC12 cells on Au electrode; double thymidine block; PBS 0.01 M pH 7.4; vs Ag/AgCl (FIG. 2b)
Protocol: as §1

cyclin B1 = test: Western blot of synchronized PC12 cells, cyclin B1; details: Western blot of G1/S- or G2/M-blocked PC12 cells (FIG. 3d)
Protocol: as §2

| SMILES | cells synchronized in G2/M-phase (PC12 cells [1]; 4 hrs release, 100 ng/ml nocodazole 10 h, FACS (FIG. 3c)) [%] | p-HH^3 expression (phosphohistone (p-HH^3)) | cells fixed in G1/S-phase (PC12 cells [1]; 8 hrs release, FACS (FIG. 3b)) | DPV peak potential of G1/S-phase blocked cells (PC12 cells [2]) | cyclin B1 expression (cyclin B1) |
| --- | --- | --- | --- | --- | --- |
| COC(=O)Nc1nc2ccc(C(=O)c3cccs3)cc2[nH]1 [nocodazole] | ~72 | expressed | – | – | – |
| Cc1cn([C@H]2C[C@H](O)[C@@H](CO)O2)c(=O)[nH]c1=O [thymidine, Thymidine] | – | absent | Approximately 75% | +50 mV | expressed dominantly |
